Experimental data: paper PMC7337102 (ACS infectious diseases, 2019)

Molecular target: Eis_wt (Mycobacterium tuberculosis, UniProt P9WFK7)
Assay type: biochemical
Conditions: KAN as substrate

Chain of Eis_wt (P9WFK7 whole entry): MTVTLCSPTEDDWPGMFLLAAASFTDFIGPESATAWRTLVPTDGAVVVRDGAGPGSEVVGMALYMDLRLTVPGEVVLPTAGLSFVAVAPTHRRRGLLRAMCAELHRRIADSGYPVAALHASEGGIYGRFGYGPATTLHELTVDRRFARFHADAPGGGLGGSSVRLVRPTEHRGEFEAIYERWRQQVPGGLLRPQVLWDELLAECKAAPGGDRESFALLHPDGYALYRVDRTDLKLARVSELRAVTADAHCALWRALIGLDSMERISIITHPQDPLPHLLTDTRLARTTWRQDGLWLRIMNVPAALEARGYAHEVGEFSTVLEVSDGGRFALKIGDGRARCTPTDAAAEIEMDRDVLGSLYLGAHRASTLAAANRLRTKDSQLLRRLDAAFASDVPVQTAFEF

NC[C@H]1O[C@H](O[C@H]2[C@H](O)[C@@H](O[C@H]3O[C@H](CO)[C@@H](O)[C@H](N)[C@H]3O)[C@H](N)C[C@@H]2N)[C@H](O)[C@@H](O)[C@@H]1O [KAN, kanamycin]
kcat: 0.238 ± 0.0317 s⁻¹ | Km (average for three sets of assays): 551 ± 134 µM
